Assay [1] relates to HepG2. In words: Cytotoxicity against human HepG2 cells after 72 hrs by MTT assay. It counts as functional, cell-based. To be noted: HepG2, 72 h. Background: Formazan colour is commonly taken as a measure of viable cells.
Assay [2] has as its target RAF proto-oncogene serine/threonine-protein kinase (Homo sapiens) (UniProt P04049). In words: Inhibition of c-RAF (unknown origin) using [33P]ATP by […] assay.
A short description of assay [3]: Cytotoxicity against human KCC-853 cells after 72 hrs by MTT assay. It counts as functional, cell-based. To be noted: KCC-853, 72 h.
The subject of assay [4] is A549. In words: Cytotoxicity against human A549 cells after 72 hrs by MTT assay. To be noted: A549, 72 h. It counts as functional, cell-based.
Assay [5] deals with RAF proto-oncogene serine/threonine-protein kinase (Homo sapiens) (UniProt P04049). The assay is described as follows: Inhibition of c-RAF (unknown origin) at 10 uM.
RAF proto-oncogene serine/threonine-protein kinase (Homo sapiens), sequence (P04049 whole entry): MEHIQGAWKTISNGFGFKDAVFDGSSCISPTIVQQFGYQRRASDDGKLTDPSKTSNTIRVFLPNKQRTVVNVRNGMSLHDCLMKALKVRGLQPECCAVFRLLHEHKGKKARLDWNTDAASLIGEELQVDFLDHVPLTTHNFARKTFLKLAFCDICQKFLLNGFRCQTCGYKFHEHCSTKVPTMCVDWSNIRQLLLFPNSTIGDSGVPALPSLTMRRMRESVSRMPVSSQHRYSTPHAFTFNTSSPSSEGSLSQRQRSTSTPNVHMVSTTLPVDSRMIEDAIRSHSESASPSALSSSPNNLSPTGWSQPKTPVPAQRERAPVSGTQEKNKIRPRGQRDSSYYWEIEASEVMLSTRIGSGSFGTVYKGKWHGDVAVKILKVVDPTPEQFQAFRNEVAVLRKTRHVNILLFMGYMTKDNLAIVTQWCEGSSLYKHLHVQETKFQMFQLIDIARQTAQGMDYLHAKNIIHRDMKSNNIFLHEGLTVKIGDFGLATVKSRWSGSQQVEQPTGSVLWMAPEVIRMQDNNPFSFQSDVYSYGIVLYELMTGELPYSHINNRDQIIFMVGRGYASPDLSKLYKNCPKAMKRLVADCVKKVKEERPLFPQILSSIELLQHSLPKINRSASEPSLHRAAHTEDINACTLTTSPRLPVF
Assay [6] addresses Vascular endothelial growth factor receptor 2 (Homo sapiens) (UniProt P35968). The assay is described as follows: Inhibition of VEGFR2 (unknown origin) at 10 uM.
The species entered for assay [7] is Homo sapiens. In words: Inhibition of PKA (unknown origin) at 10 uM.
Assay [8] addresses Tyrosine-protein kinase ABL1 (Homo sapiens) (UniProt P00519). In words: Inhibition of ABL1 (unknown origin) at 10 uM.
Assay [9] addresses Angiopoietin-1 receptor (Homo sapiens) (UniProt Q02763). The assay is described as follows: Inhibition of TIE2 (unknown origin) at 10 uM.
The target of assay [10] is Cyclin-dependent kinase 2 (Homo sapiens) (UniProt P24941). In words: Inhibition of CDK2 (unknown origin) at 10 uM.
Assay [11] addresses Fibroblast growth factor receptor 1 (Homo sapiens) (UniProt P11362). The assay is described as follows: Inhibition of FGFR1 (unknown origin) at 10 uM.
Assay [12] deals with Serine/threonine-protein kinase PLK1 (Homo sapiens) (UniProt P53350). In words: Inhibition of PLK1 (unknown origin) at 10 uM.
Serine/threonine-protein kinase PLK1 (Homo sapiens), sequence (P53350 whole entry): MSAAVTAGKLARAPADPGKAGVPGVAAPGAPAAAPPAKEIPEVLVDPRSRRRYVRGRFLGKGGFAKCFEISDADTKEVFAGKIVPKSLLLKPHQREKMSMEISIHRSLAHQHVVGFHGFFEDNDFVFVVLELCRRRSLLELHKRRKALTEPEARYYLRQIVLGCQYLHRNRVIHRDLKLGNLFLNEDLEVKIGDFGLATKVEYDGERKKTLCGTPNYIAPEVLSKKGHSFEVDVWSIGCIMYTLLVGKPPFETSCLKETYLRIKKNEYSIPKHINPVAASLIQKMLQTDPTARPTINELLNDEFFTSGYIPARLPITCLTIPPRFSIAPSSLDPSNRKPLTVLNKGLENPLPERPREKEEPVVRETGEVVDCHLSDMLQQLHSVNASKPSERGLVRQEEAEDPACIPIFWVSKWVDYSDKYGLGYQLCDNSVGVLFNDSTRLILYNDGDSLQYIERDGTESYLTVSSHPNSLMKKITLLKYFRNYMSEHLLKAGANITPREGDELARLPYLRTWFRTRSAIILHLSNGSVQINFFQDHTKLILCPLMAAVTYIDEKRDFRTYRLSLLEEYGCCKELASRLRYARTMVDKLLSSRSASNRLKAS
Assay [13] addresses RAC-alpha serine/threonine-protein kinase (Homo sapiens) (UniProt P31749). The assay is described as follows: Inhibition of AKT1 (unknown origin) at 10 uM.
For assay [14], the target named is Focal adhesion kinase 1 (Homo sapiens) (UniProt Q05397). The assay is described as follows: Inhibition of PTK2 (unknown origin) at 10 uM.
Assay [15] addresses Receptor-type tyrosine-protein kinase FLT3 (Homo sapiens) (UniProt P36888). The assay is described as follows: Inhibition of FLT3 (unknown origin) at 10 uM.
Assay [16] addresses Macrophage colony-stimulating factor 1 receptor (Homo sapiens) (UniProt P07333). In words: Inhibition of FMS (unknown origin) at 10 uM.
Assay [17] addresses Inhibitor of nuclear factor kappa-B kinase subunit beta (Homo sapiens) (UniProt O14920). In words: Inhibition of IKKbeta (unknown origin) at 10 uM.
Assay [18] has as its target Platelet-derived growth factor receptor alpha (Homo sapiens) (UniProt P16234). The assay is described as follows: Inhibition of PDGFR-alpha (unknown origin) at 10 uM.
Assay [19] concerns the target Tyrosine-protein kinase Fyn (Homo sapiens) (UniProt P06241). In words: Inhibition of FYN (unknown origin) at 10 uM.
For assay [20], the target named is Hepatocyte growth factor receptor (Homo sapiens) (UniProt P08581). The assay is described as follows: Inhibition of c-MET (unknown origin) at 10 uM.
Assay [21] addresses Tyrosine-protein kinase SYK (Homo sapiens) (UniProt P43405). The assay is described as follows: Inhibition of SYK (unknown origin) at 10 uM.
Assay [22] concerns the target Tyrosine-protein kinase JAK2 (Homo sapiens) (UniProt O60674). In words: Inhibition of JAK2 (unknown origin) at 10 uM.
Assay [23] deals with Mast/stem cell growth factor receptor Kit (Homo sapiens) (UniProt P10721). In words: Inhibition of c-Kit (unknown origin) at 10 uM.
The target of assay [24] is Vascular endothelial growth factor receptor 2 (Homo sapiens) (UniProt P35968). The assay is described as follows: Inhibition of KDR (unknown origin) at 10 uM.
Vascular endothelial growth factor receptor 2 (Homo sapiens), sequence (P35968 whole entry): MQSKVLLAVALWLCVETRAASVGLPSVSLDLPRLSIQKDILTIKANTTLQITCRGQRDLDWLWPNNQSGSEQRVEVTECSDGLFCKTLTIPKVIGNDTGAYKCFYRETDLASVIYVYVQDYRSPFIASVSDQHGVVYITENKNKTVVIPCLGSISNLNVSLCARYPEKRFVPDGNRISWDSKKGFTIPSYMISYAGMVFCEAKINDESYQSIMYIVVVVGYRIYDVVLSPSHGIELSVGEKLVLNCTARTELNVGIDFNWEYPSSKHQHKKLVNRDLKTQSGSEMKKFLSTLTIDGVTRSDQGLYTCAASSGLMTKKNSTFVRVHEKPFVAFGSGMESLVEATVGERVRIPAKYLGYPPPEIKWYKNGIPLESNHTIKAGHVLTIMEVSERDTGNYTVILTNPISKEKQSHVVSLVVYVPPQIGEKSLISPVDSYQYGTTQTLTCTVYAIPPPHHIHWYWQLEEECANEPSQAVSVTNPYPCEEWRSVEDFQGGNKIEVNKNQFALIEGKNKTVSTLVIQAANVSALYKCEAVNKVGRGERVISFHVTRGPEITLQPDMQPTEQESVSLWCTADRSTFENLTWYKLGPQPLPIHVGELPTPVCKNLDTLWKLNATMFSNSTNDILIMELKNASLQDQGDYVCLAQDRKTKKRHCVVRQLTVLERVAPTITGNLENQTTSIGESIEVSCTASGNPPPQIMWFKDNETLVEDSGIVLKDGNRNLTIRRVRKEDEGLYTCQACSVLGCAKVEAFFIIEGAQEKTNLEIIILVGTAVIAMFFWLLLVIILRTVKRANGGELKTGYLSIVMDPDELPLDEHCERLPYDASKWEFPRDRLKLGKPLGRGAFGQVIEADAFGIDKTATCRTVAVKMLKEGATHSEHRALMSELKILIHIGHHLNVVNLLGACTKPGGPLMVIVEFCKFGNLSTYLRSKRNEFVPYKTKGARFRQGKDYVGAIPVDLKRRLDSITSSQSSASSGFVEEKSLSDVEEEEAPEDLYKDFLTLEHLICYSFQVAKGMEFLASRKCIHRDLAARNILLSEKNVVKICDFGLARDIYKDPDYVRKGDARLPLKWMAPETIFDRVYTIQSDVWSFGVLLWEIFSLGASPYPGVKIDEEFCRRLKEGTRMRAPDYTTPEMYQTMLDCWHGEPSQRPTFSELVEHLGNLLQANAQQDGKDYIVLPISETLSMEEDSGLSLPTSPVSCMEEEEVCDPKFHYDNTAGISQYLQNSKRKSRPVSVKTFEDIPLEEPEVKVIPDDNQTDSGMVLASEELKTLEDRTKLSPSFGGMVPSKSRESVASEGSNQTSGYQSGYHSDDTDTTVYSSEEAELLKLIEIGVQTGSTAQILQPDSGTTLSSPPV

Each structure is given as a SMILES string.

Fibroblast growth factor receptor 1 (Homo sapiens), sequence (P11362 22-822 limits assumed): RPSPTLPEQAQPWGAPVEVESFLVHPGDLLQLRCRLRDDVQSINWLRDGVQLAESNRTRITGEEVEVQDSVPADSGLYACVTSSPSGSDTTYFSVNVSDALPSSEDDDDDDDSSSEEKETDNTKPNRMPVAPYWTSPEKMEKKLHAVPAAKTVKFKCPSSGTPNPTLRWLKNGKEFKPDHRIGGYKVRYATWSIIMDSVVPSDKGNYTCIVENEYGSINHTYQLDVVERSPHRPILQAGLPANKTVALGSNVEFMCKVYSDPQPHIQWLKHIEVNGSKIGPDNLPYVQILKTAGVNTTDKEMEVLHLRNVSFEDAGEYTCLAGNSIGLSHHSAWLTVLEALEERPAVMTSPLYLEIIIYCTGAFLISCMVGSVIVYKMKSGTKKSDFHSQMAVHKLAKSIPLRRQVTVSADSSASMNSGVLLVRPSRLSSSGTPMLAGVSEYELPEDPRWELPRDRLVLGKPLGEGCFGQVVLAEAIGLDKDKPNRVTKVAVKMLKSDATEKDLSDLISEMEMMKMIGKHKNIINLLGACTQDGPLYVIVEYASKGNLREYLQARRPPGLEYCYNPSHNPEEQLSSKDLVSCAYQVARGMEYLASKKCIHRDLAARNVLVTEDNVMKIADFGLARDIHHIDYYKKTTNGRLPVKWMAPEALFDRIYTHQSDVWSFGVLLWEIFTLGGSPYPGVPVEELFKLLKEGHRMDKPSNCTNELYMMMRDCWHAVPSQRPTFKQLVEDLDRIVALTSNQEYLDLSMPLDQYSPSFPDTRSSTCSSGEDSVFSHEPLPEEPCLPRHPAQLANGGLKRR
Platelet-derived growth factor receptor alpha (Homo sapiens), sequence (P16234 whole entry): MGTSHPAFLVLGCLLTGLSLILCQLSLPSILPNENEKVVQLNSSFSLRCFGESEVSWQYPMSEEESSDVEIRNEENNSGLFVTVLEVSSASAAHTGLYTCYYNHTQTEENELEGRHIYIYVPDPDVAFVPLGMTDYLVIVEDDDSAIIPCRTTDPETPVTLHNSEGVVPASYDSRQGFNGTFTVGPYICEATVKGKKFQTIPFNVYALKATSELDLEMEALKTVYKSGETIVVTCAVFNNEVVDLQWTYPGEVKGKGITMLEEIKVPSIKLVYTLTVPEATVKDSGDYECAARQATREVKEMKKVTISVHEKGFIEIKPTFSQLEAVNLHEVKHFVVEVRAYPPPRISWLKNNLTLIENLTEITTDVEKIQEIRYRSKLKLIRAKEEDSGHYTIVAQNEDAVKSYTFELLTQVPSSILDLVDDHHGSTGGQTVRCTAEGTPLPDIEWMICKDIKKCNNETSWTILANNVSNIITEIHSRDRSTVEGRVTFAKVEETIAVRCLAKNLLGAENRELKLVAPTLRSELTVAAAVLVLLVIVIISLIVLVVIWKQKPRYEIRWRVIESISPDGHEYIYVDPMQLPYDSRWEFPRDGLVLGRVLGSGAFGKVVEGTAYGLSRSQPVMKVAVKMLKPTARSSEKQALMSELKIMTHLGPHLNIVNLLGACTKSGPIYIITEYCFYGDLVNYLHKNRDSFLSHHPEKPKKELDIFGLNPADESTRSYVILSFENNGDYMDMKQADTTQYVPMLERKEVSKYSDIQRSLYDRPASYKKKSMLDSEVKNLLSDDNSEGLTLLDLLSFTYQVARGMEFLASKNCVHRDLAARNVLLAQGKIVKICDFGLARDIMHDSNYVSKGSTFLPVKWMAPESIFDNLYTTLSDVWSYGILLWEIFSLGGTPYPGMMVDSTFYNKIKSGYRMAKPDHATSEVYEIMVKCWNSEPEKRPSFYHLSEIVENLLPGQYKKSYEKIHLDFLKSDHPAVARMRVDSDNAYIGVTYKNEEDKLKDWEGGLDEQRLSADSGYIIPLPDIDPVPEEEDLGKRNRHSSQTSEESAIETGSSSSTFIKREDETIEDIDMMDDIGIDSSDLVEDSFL
RAC-alpha serine/threonine-protein kinase (Homo sapiens), sequence (P31749 whole entry): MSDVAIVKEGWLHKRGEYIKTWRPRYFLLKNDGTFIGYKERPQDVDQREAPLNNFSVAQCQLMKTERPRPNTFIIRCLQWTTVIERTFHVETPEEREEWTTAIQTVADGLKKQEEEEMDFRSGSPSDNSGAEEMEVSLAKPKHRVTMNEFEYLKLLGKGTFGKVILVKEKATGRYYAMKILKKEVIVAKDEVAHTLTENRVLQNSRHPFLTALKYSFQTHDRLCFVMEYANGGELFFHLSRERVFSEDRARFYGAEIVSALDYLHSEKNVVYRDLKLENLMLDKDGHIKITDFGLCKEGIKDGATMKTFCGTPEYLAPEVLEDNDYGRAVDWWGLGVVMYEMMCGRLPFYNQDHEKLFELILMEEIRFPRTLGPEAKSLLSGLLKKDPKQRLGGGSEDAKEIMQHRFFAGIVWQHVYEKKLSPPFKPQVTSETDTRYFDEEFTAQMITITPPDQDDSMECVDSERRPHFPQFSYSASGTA

In the case of `CNC(=O)c1cc(Oc2ccc(NC(=O)Nc3ccc(Cl)c(C(F)(F)F)c3)cc2)ccn1` [SORAFENIB], the IC50 (in general, the concentration needed to halve the response being measured) in [1] turned out to be 12.7 µM; in [2] it was 0.0285 µM; in assay [3] it was 6.78 µM; in assay [4], 5.23 µM.

For `Cc1cccc(C)c1NC(=O)Nc1ccc(Oc2ccnc3cc4c(cc23)C(C)(C)C(=O)N4)c(Cl)c1`, the IC50 in [1] amounted to 11.2 µM; in assay [2], 0.0281 µM; in assay [3], 4.39 µM; in [4], 3.85 µM.

For `CC1(C)C(=O)Nc2cc3nccc(Oc4ccc(NC(=O)Nc5cccc(F)c5)cc4)c3cc21`, the IC50 in assay [1] was 12 µM; in assay [2], 0.0373 µM; in [3], 10.6 µM; in assay [4], 5.46 µM.

`CC1(C)C(=O)Nc2cc3nccc(Oc4ccc(NC(=O)Nc5ccc(F)c(C(F)(F)F)c5)cc4Cl)c3cc21`: the inhibition (in general, the share of the control response that was lost under treatment) in assay [5] stood at 94.6%; in assay [6] it was 34.1%; in [7], 1.3%; in assay [8], 26.2%; in assay [9], 22.3%; in assay [10], 7.8%. For the same compound, the inhibition in [11] was found to be 20.2%; in [12] it was 4.9%; in assay [13], 16.5%; in assay [14], 3.6%; in assay [15], 15.3%; in assay [16], 46.9%. Moreover, the inhibition is 4.7% in assay [17]; 0.3% in assay [18]; 0.6% in assay [19]; 1.5% in [20]; 15% in assay [21]; 0.2% in [22]. Moreover, the inhibition in [23] came to 18.7%; in [24], 1.4%. Moreover, the IC50 turned out to be 6.36 µM in assay [1], 0.0087 µM in assay [2], 1.1 µM in assay [3] and 0.916 µM in assay [4].

As to `Cc1cc(NC(=O)Nc2ccc(Oc3ccnc4cc5c(cc34)C(C)(C)C(=O)N5)cc2)no1`, the IC50 in [1] stood at 31.7 µM; in assay [2], 0.0585 µM; in assay [3], 10.1 µM; in assay [4], 6.47 µM.

`CC1(C)C(=O)Nc2cc3nccc(Oc4ccc(NC(=O)Nc5cccc(F)c5)cc4Cl)c3cc21`: the IC50 in assay [1] came out at 7.35 µM; in [2], 0.0221 µM; in assay [3], 6.49 µM; in assay [4], 4.38 µM.

Turning to `Cc1cccc(C)c1NC(=O)Nc1ccc(Oc2ccnc3cc4c(cc23)C(C)(C)C(=O)N4)cc1`, the half-maximal inhibitory concentration (IC50) was 20.3 µM in assay [1], 0.0521 µM in assay [2], 10.3 µM in assay [3] and 10.5 µM in assay [4].

`CC1(C)C(=O)Nc2cc3nccc(Oc4ccc(NC(=O)Nc5ccc(F)c(C(F)(F)F)c5)cc4)c3cc21`: the IC50 in assay [1] turned out to be 9.56 µM; in [2] it was 0.0147 µM; in assay [3] it was 4.23 µM; in assay [4] it was 3.2 µM.

As to `CC1(C)C(=O)Nc2cc3nccc(Oc4ccc(NC(=O)Nc5ccc(F)c(C(F)(F)F)c5)cc4F)c3cc21`, the IC50 was determined as 8.09 µM in [1], 0.0159 µM in assay [2], 2.85 µM in assay [3] and 2.16 µM in assay [4].

For `Cc1cc(NC(=O)Nc2ccc(Oc3ccnc4cc5c(cc34)C(C)(C)C(=O)N5)c(Cl)c2)no1`, the IC50 was 8.46 µM in [1], 0.0187 µM in [2], 5.86 µM in assay [3] and 5.76 µM in [4].

`Cc1cc(NC(=O)Nc2ccc(Oc3ccnc4cc5c(cc34)C(C)(C)C(=O)N5)c(F)c2)no1`: the half-maximal inhibitory concentration (IC50) amounted to 12 µM in assay [1], 0.0272 µM in assay [2], 4.18 µM in [3] and 5.03 µM in assay [4].

Consider `CC1(C)C(=O)Nc2cc3nccc(Oc4ccc(NC(=O)Nc5cccc(F)c5)cc4F)c3cc21`, for which the IC50 turned out to be 15.5 µM in assay [1], 0.0252 µM in assay [2], 5.64 µM in [3] and 7.71 µM in assay [4].

On to `Cc1cccc(C)c1NC(=O)Nc1ccc(Oc2ccnc3cc4c(cc23)C(C)(C)C(=O)N4)c(F)c1`, for which the IC50 in [1] was determined as 10.3 µM; in assay [2] it was 0.0303 µM; in [3], 3.75 µM; in [4], 4.07 µM.
